Activity, inhibition and IC50 data for 3 compounds are collected here from ChEMBL document CHEMBL3588762, “A practical glycosyltransferase assay for the identification of new inhibitor chemotypes” (Medchemcomm, 2014).

The target in experiment [1] is Intestinal-type alkaline phosphatase (Bos taurus) (UniProt P19111). Briefly: Activity of calf intestinal phosphatase assessed as compound turn over rates by inorganic phosphate release and malachite green dye based inorganic phosphate detection based assay.
Sequence of Intestinal-type alkaline phosphatase (Bos taurus) (P19111 20-506 limits assumed): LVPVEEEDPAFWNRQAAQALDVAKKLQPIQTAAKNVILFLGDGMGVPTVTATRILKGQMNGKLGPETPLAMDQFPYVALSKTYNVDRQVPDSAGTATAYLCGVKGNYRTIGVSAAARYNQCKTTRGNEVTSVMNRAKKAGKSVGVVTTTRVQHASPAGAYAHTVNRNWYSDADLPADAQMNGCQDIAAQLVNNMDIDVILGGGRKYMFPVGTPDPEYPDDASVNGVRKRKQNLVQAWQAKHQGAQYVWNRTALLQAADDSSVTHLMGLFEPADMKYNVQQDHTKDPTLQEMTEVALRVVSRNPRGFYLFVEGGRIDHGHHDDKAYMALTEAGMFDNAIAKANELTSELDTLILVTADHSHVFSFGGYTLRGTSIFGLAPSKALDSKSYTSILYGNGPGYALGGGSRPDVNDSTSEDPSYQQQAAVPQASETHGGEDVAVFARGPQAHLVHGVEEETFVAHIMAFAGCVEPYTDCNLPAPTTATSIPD
Experiment [2] addresses T1, Alpha 1,4 galactosyltransferase (Neisseria meningitidis) (UniProt Q8KHJ3).
T1 sequence (whole entry): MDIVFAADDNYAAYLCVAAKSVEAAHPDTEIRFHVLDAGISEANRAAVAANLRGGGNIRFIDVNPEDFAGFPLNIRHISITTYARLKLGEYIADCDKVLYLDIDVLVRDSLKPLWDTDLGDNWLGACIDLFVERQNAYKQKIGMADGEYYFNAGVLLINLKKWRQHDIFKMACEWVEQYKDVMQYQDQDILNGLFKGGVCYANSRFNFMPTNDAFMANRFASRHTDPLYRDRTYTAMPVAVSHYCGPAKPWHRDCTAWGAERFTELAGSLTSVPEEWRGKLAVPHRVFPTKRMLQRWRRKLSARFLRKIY
The experiment in a line: Inhibition of Neisseria meningitidis alpha-1,4-galactosyltransferase LgtC at 50% donor UDP-Gal turn over rates by inorganic phosphate release from UDP and malachite green dye based inorganic phosphate detection based assay.

Experiment [3] has as its target T1, Alpha 1,4 galactosyltransferase (Neisseria meningitidis). The experiment in a line: Inhibition of Neisseria meningitidis alpha-1,4-galactosyltransferase LgtC at 90% donor UDP-Gal turn over rates by inorganic phosphate release from UDP and malachite green dye based inorganic phosphate detection based assay.
The target is the same in experiment [4]. The experiment in a line: Inhibition of Neisseria meningitidis alpha-1,4-galactosyltransferase LgtC at 20% donor UDP-Gal turn over rates by inorganic phosphate release from UDP and malachite green dye based inorganic phosphate detection based assay.
For experiment [5], the target named is T2, Beta-1,4-galactosyltransferase 1 (Bos taurus) (UniProt P08037).
T2 sequence (whole entry): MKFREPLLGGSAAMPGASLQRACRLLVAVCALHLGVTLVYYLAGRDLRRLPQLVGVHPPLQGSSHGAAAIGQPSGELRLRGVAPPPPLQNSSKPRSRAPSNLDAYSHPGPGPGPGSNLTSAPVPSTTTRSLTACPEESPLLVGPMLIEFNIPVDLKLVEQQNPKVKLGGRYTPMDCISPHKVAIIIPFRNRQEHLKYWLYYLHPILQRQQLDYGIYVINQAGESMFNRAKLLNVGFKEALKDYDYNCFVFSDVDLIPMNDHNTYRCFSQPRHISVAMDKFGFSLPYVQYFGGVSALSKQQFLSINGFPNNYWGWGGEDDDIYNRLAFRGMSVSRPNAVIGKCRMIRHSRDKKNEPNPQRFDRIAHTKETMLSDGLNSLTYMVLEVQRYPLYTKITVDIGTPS
Briefly: Inhibition of bovine beta-1,4-GalT […] at 10% to 50 donor UDP-Gal turn over rates by inorganic phosphate release from UDP and malachite green dye based inorganic phosphate detection based assay.

Experiment [6] concerns the target T1, Alpha 1,4 galactosyltransferase (Neisseria meningitidis). The experiment in a line: Activity of Neisseria meningitidis alpha-1,4-galactosyltransferase LgtC assessed as compound turn over rates at 50 to 100 uM incubated for 20 mins by inorganic phosphate release and malachite green dye based inorganic phosphate detection based assay.
Experiment [7] deals with T3, Beta-1,4-galactosyltransferase 1 (Bos taurus, UniProt P08037).
T3 sequence (P08037 whole entry): T2 sequence (whole entry)
The experiment in a line: Inhibition of bovine beta-1,4-GalT […] at 29% donor UDP-Gal turn over rates by inorganic phosphate release from UDP and malachite green dye based inorganic phosphate detection based assay.

In experiment [8] the target is T4, Alpha 1,4 galactosyltransferase (Neisseria meningitidis, UniProt Q8KHJ3).
T4 sequence (Q8KHJ3 whole entry): T1 sequence (whole entry)
The experiment in a line: Inhibition of Neisseria meningitidis alpha-1,4-galactosyltransferase LgtC by inorganic phosphate release from UDP and malachite green dye based inorganic phosphate detection based assay.

Usually IC50 stands for the concentration at which inhibition is half-maximal.

The source made the active and inactive calls. The calls are words filed in the database; no cut-off is given here.

For the compound `O=c1ccn([C@@H]2O[C@H](COP(=O)(O)OP(=O)(O)O)[C@@H](O)[C@H]2O)c(=O)[nH]1`, the outcome in experiment [1] was Active.
Take `O=c1ccn([C@@H]2O[C@H](CO)[C@@H](O)[C@H]2O)c(=O)[nH]1`: the inhibition entry in experiment [2], in experiment [3], in experiment [4] and in experiment [5] was “inactive” throughout.
Regarding `O=Cc1ccc(-c2cn([C@@H]3O[C@H](COP(=O)(O)OP(=O)(O)O[C@H]4O[C@H](CO)[C@H](O)[C@H](O)[C@H]4O)[C@@H](O)[C@H]3O)c(=O)[nH]c2=O)s1`, the result in experiment [6] was inactive. Also, the figures for the IC50 in experiment [7] and in experiment [8] were 9 µM and 900 nM, respectively. Also, in experiment [1], the result was Active.
